Values after ≈ are worked out from the molar mass of the structure shown. Values joined by “and” are separate entries in the source; they are usually repeats but may differ in a detail not shown here. Equal entries are not always repeated. “Also recorded” adds a separate entry of the source.

A word on the IC50: it is the point on the concentration scale where inhibition reaches its midpoint. In general, inhibition refers to the relative decrease from the control value, in per cent.

In assay [1] the test system is formation of AGEs (BSA-glucose). Nature of the assay: BSA-glucose antiglycation assay. The class given is biochemical. The settings on record: for IC50: read-out: Protein glycation BSA-Glucose IC50. The protocol: (§1) The BSA-glucose and BSA-MGO antiglycation assays were performed as reported before ([Amin et al., 2016]). The test protocol is attached as Supplementary Material ([Amin et al., 2016]).
28 Antiglycation assay (BSA-Glucose assay)
29 In the BSA-glucose assay the prevention of AGEs formation is investigated by determining the
30 fluorescence of the complex formed after incubation of a sugar (glucose) with protein (BSA) in
31 the presence or absence of test compounds. The antiglycation assay was performed according to
32 the method developed by Matsuura et al. (2002) with minor modifications. […]
37 DMSO. The mixtures were incubated at 60°C for 48 h. After incubation, the reaction mixture
38 was allowed to cool down at room temperature. Then 100 µL reaction mixture was transferred
39 to a new plastic tube (1.5 mL) and the reaction was stopped by adding 10 μL of 100% (w/v)
40 trichloroacetic acid (TCA) and to precipitate proteins. The TCA-added mixture was kept at 4°C
41 for 10 min, followed by centrifugation (14000 rpm, 4 °C, 4 min). The supernatant containing
42 unreacted D-glucose, test sample and interfering substances was discarded, whereas the
44 8.1 mM Na2HPO4, 2.68 mM KCl, 1.47 mM KH2PO4, […]). The change in fluorescence
46 of AGEs was monitored by spectrofluorometry (Tecan™ Infinite M200, Giessen, The
47 Netherlands). In order to eliminate interference by autofluorescence of the test compounds, a
48 parallel incubation of test substance with BSA at 60°C without D-glucose was performed for all
50 final concentration) were used as reference compounds.
51 The AGEs inhibition was calculated as
55 where F is the fluorescence intensity.
56 calculated using Sigma plot® 13.0.

Assay [2] has as its system formation of AGEs (BSA-MGO). Nature of the assay: BSA-MGO antiglycation assay. The class given is biochemical. The method, then: as §1
60 Protein-glyoxal interaction (BSA-MGO assay)
61 The antiglycation assay using methylgloxyl (MGO) was performed according to the method
62 developed by Peng et al. (2007) with slight modifications. Briefly, methylglyoxal (135 μL, 5.75
63 mM) was incubated with BSA (135 μL, 10 mg/mL) dissolved in phosphate buffer (50 mM, pH
64 7.4, containing sodium azide (0.02%), added to prevent bacterial growth) and test compounds
65 (30 μL) at different final concentrations (1.5 – 0.023 mM) in 100% DMSO. The reaction
66 mixture was incubated at 37 °C for one week. Control solutions only contained methylglyoxal
67 (135 μL, 5.75 mM) BSA (135 μL, 1 0mg/mL) and DMSO (100%) only. The blank samples of
68 similar composition were also prepared simultaneously and kept at 4 °C for one week. The
70 440) due to formation of AGEs was monitored by spectrofluorometry (Tecan® Infinite M200,
71 Giessen, The Netherlands). Aminoguanidine (3-0.046 mM final concentration) was used as
72 reference compound. The AGEs inhibition was calculated as
74 % AGEs inhibition = [1–(S–Sb)/(C–Cb)] x 100
76 where S and C were fluorescence of test samples (in DMSO) and control (test mixtures
77 containing only DMSO) incubated at 37 °C, and where Sb and Cb were fluorescence for
78 samples incubated at 4 °C.
79 using Sigma plot® 13.0.

In assay [3] the target is T1, α-glucosidase from Saccharomyces cerevisiae (Saccharomyces cerevisiae, UniProt P53341).
T1 construct: purchased Sigma-Aldrich
T1 sequence (P53341 whole entry): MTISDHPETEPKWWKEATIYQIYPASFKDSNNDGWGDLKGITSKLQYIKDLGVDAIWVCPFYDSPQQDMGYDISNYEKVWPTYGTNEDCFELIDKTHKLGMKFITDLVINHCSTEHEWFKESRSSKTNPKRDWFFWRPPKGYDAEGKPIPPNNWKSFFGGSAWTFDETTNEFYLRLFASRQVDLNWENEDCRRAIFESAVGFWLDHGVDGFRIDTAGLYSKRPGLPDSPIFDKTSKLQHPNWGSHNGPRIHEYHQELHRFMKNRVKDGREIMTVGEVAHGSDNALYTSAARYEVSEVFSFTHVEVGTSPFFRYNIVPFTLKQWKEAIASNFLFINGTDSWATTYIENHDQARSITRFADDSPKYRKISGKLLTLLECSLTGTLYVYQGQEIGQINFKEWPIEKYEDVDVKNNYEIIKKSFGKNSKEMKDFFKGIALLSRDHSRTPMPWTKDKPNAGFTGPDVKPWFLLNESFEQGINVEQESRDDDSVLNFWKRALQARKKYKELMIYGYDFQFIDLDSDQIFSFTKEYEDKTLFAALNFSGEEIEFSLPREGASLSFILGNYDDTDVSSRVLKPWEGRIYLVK
Briefly: α-glucosidase inhibition assay. The settings on record: read-out: α-glucosidase % inhibition. More on the design: inhibition: dose or concentration left out as unconfirmed. The class given is biochemical. The protocol:
The α-glucosidase assay was carried out according as reported before ([Amin et al., 2016]). The test protocol is attached as Supplementary Material ([Amin et al., 2016]).
81 Inhibition of α-glucosidase.
82 α-Glucosidase inhibitory activity was assayed according to method adopted by Choudhary et al.
83 (2010) with some modifications. Briefly, 50 µL of a solution of α-glucosidase from
84 Saccharomyces cerevisiae (0.2 U/mL in 0.1 M phosphate buffer at pH 6.8, Sigma-Aldrich, St.
85 Louis, MO, USA) was incubated with 20 μL of test compounds or extracts at different
86 concentrations (ranging from 6 mM – 0.372 mM in 25% DMSO for isolated constituents or
87 from 5 mg to 0.039 mg/mL for extracts) at 37 °C for 10 min. Then 50 μl of the substrate,
88 p-nitrophenyl-α-D-glucopyranoside (0.7 mM stock, final concentration 0.29 mM) was added to
89 the reaction mixture and incubated again for 30 min at 37 °C. […]
91 from 834 µg to 6.5 µg/mL for extracts. The reaction was stopped by adding Na2CO3 (100 μl,
92 200 mM stock) solution and the absorbance was measured at 400 nm. Final DMSO
93 concentration remained below 7.5% during the assay.
94 concentration) was used as reference compound.
96 The % inhibition was calculated using the following formula:
98 % Inhibition = 100 – [OD (test sample) / OD (control)] × 100
100 Alpha-glucosidase inhibition was categorized as mild (1-25%), moderate (26-50%), high

For the next assay, the target named is T2, 15-LOX from soybean (Glycine max, UniProt P08170).
T2 sequence (P08170 1-839): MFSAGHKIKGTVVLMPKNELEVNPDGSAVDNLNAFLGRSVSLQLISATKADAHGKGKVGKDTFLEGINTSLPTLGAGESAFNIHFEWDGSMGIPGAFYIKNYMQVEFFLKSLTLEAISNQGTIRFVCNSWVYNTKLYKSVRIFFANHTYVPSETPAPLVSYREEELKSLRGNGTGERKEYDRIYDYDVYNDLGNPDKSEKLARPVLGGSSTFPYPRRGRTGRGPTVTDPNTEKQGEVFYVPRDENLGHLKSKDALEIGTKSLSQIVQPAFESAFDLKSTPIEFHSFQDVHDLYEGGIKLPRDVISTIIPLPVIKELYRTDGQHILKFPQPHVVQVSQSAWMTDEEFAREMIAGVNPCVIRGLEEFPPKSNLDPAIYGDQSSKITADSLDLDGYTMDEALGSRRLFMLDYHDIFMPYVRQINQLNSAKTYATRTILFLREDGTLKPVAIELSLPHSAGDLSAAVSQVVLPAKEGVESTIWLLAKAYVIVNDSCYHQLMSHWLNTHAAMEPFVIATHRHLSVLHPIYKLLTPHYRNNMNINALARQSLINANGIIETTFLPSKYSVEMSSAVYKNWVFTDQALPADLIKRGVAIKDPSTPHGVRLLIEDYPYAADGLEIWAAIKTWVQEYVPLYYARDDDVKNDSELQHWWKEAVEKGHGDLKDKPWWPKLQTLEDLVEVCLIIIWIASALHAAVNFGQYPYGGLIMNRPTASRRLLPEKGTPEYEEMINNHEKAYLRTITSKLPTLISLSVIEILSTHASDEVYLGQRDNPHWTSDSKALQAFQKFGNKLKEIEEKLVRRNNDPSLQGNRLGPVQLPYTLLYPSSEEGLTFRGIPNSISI
Nature of the assay: 15-lipoxygenase inhibition assay. The class given is biochemical. The settings on record: at the highest test concentration. The method, then: The soybean LOX assay is used as an indication of anti-inflammatory activity ([Muller, 1994]), and therefore during the present investigation, 15-LOX from soybean was used for peroxidation of linoleic acid, and inhibition was measured as described previously with slight modifications ([Malterud and Rydland, 2000]). Briefly, 12.5 μL (2–0.062 mM) of sample was dissolved in DMSO, and added to 487.5 μL of enzyme solution (200 U/mL). The mixture was incubated at room temperature for 5 min. Absorbance was recorded immediately after the addition of 500 μL of substrate (250 μM linoleic acid in 0.2 M borate buffer, pH 9) every minute up to 5 min at 234 nm.
% inhibition of enzyme activity was calculated as,
%inhibition of enzyme activity=([ΔA1/Δt]−[ΔA2/Δt])/(ΔA1/Δt)×100
where ΔA1/Δt and ΔA2/Δt are the increase rate in absorbance at 234 nm for sample without test substance and with test substance, respectively.

For assay [4], the system named is AAPH induced linoleic acid peroxidation. Briefly: Inhibition of linoleic acid lipid peroxidation, AAPH assay. The class given is biochemical. The settings on record: slope of inhibition time (Tinh) vs. concentration of antioxidant. The protocol:
The inhibition of linoleic acid lipid peroxidation was studied according to [Liegeois et al. (2000)] and [Rajic et al. (2010)]. Briefly, 10 μL of a 16 mM linoleic acid dispersion and 10 μL of the test compound (8-1 μM final concentration) were added to the UV cuvette containing 0.93 mL of 0.05 M phosphate buffer, pH 7.4. The oxidation reaction was initiated under air by the addition of 50 μL (40 mM) of AAPH solution. The rate of oxidation at 37°C was monitored by recording the increase of absorption at 234 nm caused by conjugated diene hydroperoxides. The results were compared to the standard inhibitor (Trolox). The AOP is defined as the slope of the curve representing the inhibition time of oxidation (Tinh) vs. the concentration of antioxidant and is expressed in min/μM.

For assay [5], the system named is Trypanosoma cruzi, Tulahuen LacZ, clone C4. Briefly: Antimicrobial screening panel: Trypanosoma cruzi. The class given is cell-based. The method, then:
(§2) Fractions and isolated compounds were evaluated for antimicrobial activity in an integrated screening panel, also including the human MRC-5 cell line to assess selectivity, as reported before ([Cos et al., 2006]; [Mesia et al., 2008]; [Baldé et al., 2010]; [Amin et al., 2016]).

For the next assay, the system named is Escherichia coli. Nature of the assay: Antimicrobial screening panel: Escherichia coli. The class given is cell-based. The protocol:
as §2

In assay [6] the test system is Leishmania infantum, MHOM/MA/67/ITMAP263. Briefly: Antimicrobial screening panel: Leishmania infantum. The class given is cell-based. The protocol: as §2
In assay [7] the test system is Trypanosoma brucei, Squib 427. Nature of the assay: Antimicrobial screening panel: Trypanosoma brucei. The class given is cell-based. The protocol:
as §2

The subject of assay [8] is Microsporum canis, B68128 Janssen strain. Briefly: Antimicrobial screening panel: Microsporum canis. The class given is cell-based. The method, then:
as §2

Regarding `N=C(N)NN` [Aminoguanidine, reference compound], the “IC50, BSA-glucose assay” value in assay [1] (fractions and positive control) worked out at 199 mg/L (≈ 2690 µM). Moreover, the half-maximal inhibitory concentration (IC50) was 1750 µM in assay [1] and 150 µM in assay [2] (read-out: Protein glycation BSA-MGO IC50). As for `CC1(O)C(Cl)C(O)C2(O)C=COC(OC3OC(CO)C(O)C(O)C3O)C12` (centres unmarked) [Compound 4, Linarioside], the “Protein glycation BSA-Glucose % inhibition” value in [1] (isolated constituents, at the highest test concentration of 3 mM) is listed as “did not present any activity; also recorded: no activity”. In assay [2] (isolated constituents, highest test concentration), the “Protein glycation BSA-MGO % inhibition” value stood at 9%. Besides, in assay [3], the inhibition worked out at 29%. Also, at 15-LOX from soybean, the “15-LOX assay % inhibition” value was found to be 8%. Consider `O=c1c(O)c(-c2ccc(O)c(O)c2)oc2cc(O)cc(O)c12` [Quercetin, reference compound], for which the IC50 in assay [1] turned out to be 230 µM. With `Cc1c(C)c2c(c(C)c1O)CCC(C)(C(=O)O)O2` (centres unmarked) [Trolox, reference compound], in [4], the “AAPH assay AOP (antioxidant power)” value was 14.12 min/μM and 14.12^c min/μM.

Turning to `O=C(Cn1ccnc1[N+](=O)[O-])NCc1ccccc1` [benznidazol, reference compound], the half-maximal inhibitory concentration (IC50) in [5] is 2.13 µM. In turn, `O=C(N[C@H](CO)[C@H](O)c1ccc([N+](=O)[O-])cc1)C(Cl)Cl` [chloramphenicol] showed an IC50 in the assay on Escherichia coli of 2.42 µM. For the compound `CCCCCCCCCCCCCCCCOP(=O)([O-])OCC[N+](C)(C)C` [miltefosine], in assay [6], the IC50 stood at 9.02 µM. For `Cc1ccc(C(=O)Nc2ccc(S(=O)(=O)O)c3cc(S(=O)(=O)O)cc(S(=O)(=O)O)c23)cc1NC(=O)c1cccc(NC(=O)Nc2cccc(C(=O)Nc3cc(C(=O)Nc4ccc(S(=O)(=O)O)c5cc(S(=O)(=O)O)cc(S(=O)(=O)O)c45)ccc3C)c2)c1` [suramine], the concentration for half-maximal inhibition (IC50) in assay [7] worked out at 0.03 µM. In the case of `CN(C/C=C/C#CC(C)(C)C)Cc1cccc2ccccc12` [terbinafin], in [8], inhibition was half-maximal at 1.38 µM (IC50).
